Key:
Format in all cases: cell-based, human
[1] = tested on: IL-8; assay: IL-8 production by PBMC from healthy volunteers, CBA
Description: (§1) CBA protocol was followed according to the manufacturer's instructions. The election of microparticles was performed following the summary of FIG. 1.
(§2) The acquisition on samples was performed with the BD FACS Array Bioanalyser System (FACSArray, Becton Dickinson, San José, Calif., USA) and the analysis of the results was completed with the software FCAP Array (Becton Dickinson) in a PC computer.
(§3) Briefly, the experimental protocol consisted of a plate pre-washing out with Wash Buffer. After decantation, the mixture of capture microparticles was re-suspended in the vortex. Standards and samples were added in the adequate dilution. After permanent stirring incubation during 1 h, the PE detection reagent was added and incubated again during 2 h at room temperature. After a washing-out, the acquisition was performed in the flow cytometer.
The effect of compound 12 on the IL-8 production by the PBMC from healthy volunteers was further investigated, both in the presence and absence of LPS stimuli and monoclonal antibodies anti-CD3 and anti-CD28. PBMC (5×10^4 cells/well) from 13 healthy volunteers were cultured in duplicate in 200 μl of complete medium supplemented with the highest solvent concentration (10^−6 M), and 10^−6 M, 10^−7 M and 10^−8 M of compound 12, in the presence and absence of either LPS (10 μg/ml) or anti-CD3 (12.5 ng/ml)+anti-CD28 (⅓×10^5), during 24 hours. Culture supernatants were frozen at −20° C. and IL-8 concentration was quantified by BD FACS Array Bioanalyser by using CBA Flex Set, specific to determine the IL-8 concentration, following the manufacturer instructions.

[2] = tested on: IL-10; assay: IL-10 production by PBMC from patients with rheumatoid arthritis, CBA
Description: as §1, §2, §3
On the other hand, PBMC (5×10^4 cells per well) from 8 patients with rheumatoid arthritis were cultured in duplicate in 200 μl of complete medium supplemented with the highest solvent concentration (10^−6 M), and 10^−6 M, 10^−7 M and 10^−8 M of compound 12 in the presence and absence of either LPS (10 μg/ml) or anti-CD3 (12.5 ng/ml), +anti-CD28 (⅓×10^5), during 24 hours. […]

[3] = tested on: CD62L in lymphocytes; assay: Shedding of CD62L in lymphocytes of PBMC, flow cytometry; conditions: healthy volunteers; 10^−6 M; p<0.05; FIG. 12a
Description: Direct immuno-fluorescence techniques of one colour with monoclonal antibodies phycoerythrin-labeled (PE) was used. PE is a fluorescent substance excitable with a 488 nm laser, which emits at 570 nm, and it is detectable and easily distinguishable by a flow cytometer. By using the antibody described in Table 1, a direct labelling was performed:
PBMC labelling: the process consisted in a labelling using 96 well V bottom plates. In each well, 5×10^4 cells are located, and afterwards centrifugated at 400×g during 5 minutes. After washing-out, cells are re-suspended and 5 μl of the corresponding monoclonal antibody are added. Cells are again re-suspended and the plate is incubated in darkness, during 20 minutes, at 4° C. Subsequently, 150 μl PBS are added and two wash-outs are performed. Finally, it is re-suspended in 150 μl PBS and collected in a cytometer tube, adding PBS up to a final volume of 0.3 ml.
For the counting, a FACSCalibur flow cytometer equipped with argon laser tuned at 488 nm was used in order to induce phycoerythrin fluorescence. The equipment, apart from the fluorescence channels, also provided information about the size (FSC) and cellular complexity (SSC).
As negative controls, the study cells with no labelling and other irrelevant labelled with monoclonal antibodies of equal isotypes than the ones used in the study (IgG1-FITC, PE y TC, IgG2a FITC, PE, TC), were used. […]

[4] = tested on: TNF-alpha; assay: TNF-alpha production by PBMC of healthy volunteers, ELISA
Description: In order to quantify the serum cytokines concentration, the extracted blood was stored in tubes both with and without anti-coagulant (collected by antecubital venopunction and arterial catheter, respectively). Blood was allowed to coagulate at room temperature in the laboratory, further separating the serum by centrifugation (600×g during 20 minutes). Supernatant were collected, filtered, divided in aliquotes and stored at −70° C. Concentration assays for different cytokines were performed by using the commercial kits described in Table 2.
Supernatants were unfrozen up to the room temperature and faced against the respective anti-cytokine by fixing them in the plate bottom and incubating them during a variable time. […] The results were assessed with the enzymo-immunoanalysis reader Multititer Plus (Tiertek Multiscan Plus, Flow Laboratories). […]
Effects of compound 12 on TNF-alpha production by PBMC of healthy volunteers in the presence or in the absence of LPS were first investigated. […] Supernatant of cultures were frozen at −20° C. and the concentration of TNF-alpha was quantified with ELISA species-specific (enzyme-linked immunosorbent assay for quantitative detection of tumour necrosis factor-alpha: human TNF-alpha ELISA BM S223/4TEUCE, Bender Med System Inc, Burlinghane Calif. 94010).

**Q.** Which “Effect on IL-8 production under LPS stimulation of PBMC” value [1] does the source give for `Cc1nc(OC2CCCC2)c(-c2ccc(S(C)(=O)=O)cc2)s1` [Compound 12, 4-cyclopentyloxy-5-(4-methylsulfonyl-phenyl)-2-methyl-thiazole] here?
**A.** The value was “no effects were observed”.

**Q.** What about the “Effect on spontaneous production of IL-8 by PBMC” value ([1]; 10^−6 M and 10^−7 M, p<0.05, FIG. 7) of the same compound?
**A.** Its value is “significantly inhibited”.

**Q.** What about the “Effect on IL-8 production induced by anti-CD3 and anti-CD28” value ([1]; 10^−8 M) of the same compound?
**A.** Its value is “significant inhibition”.

**Q.** What about the “Effect on IL-10 production by PBMC, spontaneous or anti-CD3 and anti-CD28 stimulated” value [2] of the same compound?
**A.** Its value is “no significant effects”.

**Q.** And the “Effect on IL-10 production after stimulation with LPS” value ([2]; 10^−8, p<0.05, FIG. 10)?
**A.** The value was “significantly inhibited”.

**Q.** What about the “Effect on CD62L shedding in lymphocytes” value [3] of the same compound?
**A.** Its value is “increases significantly”.

**Q.** And the “Effect on TNF-alpha concentration in the supernatant of LPS-stimulated PBMC” value ([4]; 10^−6 M and 10^−7 M, LPS, p<0.05 vs vehicle, FIG. 2)?
**A.** Its value is “diminished in a statistically significant manner”.

**Q.** What about the “Effect on spontaneous TNF-alpha production by PBMC” value ([4]; 10^−6 M, no stimulus) of the same compound?
**A.** Its value is “lowered the spontaneous TNF-alpha production”.

Reference: US7781594B2, “5-(4-methanesulfonyl-phenyl)-thiazole derivatives for the treatment of acute and chronic inflammatory diseases” (Faes Farma, S.A., priority 2008, dated 2010)
